# Data as given in article PMC11121672, “Screening of Small-Molecule Libraries Using SARS-CoV-2-Derived Sequences Identifies Novel Furin Inhibitors” (International Journal of Molecular Sciences, 2024).
# What was measured:
# Furin [1] = biological target: T1, Furin (Homo sapiens, UniProt P09958); assay: fluorogenic AMC peptide cleavage assay, soluble furin in conditioned HEK-293T medium without further purification; assay type: biochemical
# T1 construct: soluble Furin (sFur), truncated before its transmembrane domain (BTMD)
# Furin [2] = biological target: T1, Furin; assay: fluorogenic AMC peptide cleavage assay, […] dose response, not sigmoidal; assay type: cell-based
# T1 sequence (P09958 108-715): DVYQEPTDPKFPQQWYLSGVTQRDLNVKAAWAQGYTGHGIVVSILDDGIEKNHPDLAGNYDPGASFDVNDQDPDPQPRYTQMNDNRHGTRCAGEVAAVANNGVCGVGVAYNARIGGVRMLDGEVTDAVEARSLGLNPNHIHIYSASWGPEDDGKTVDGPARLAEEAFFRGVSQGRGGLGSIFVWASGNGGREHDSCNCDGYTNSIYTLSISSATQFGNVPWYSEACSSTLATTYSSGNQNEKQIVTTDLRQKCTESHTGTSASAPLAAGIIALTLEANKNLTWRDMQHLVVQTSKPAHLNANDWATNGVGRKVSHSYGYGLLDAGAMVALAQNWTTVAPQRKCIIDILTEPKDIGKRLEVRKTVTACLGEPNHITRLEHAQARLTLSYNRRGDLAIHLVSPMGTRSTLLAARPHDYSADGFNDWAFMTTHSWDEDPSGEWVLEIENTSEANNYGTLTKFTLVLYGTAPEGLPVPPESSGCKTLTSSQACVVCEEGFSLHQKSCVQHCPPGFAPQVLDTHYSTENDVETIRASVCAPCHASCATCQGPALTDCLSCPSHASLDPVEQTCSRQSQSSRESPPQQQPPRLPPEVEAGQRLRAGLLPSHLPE
SMILES,IC50 (Furin [1]),"fluorogenic AMC peptide cleavage assay, 2.5-100 μg/mL dose response, not sigmoid (Furin [2])"
"Cc1ccc(N(CCC(=O)O)C2=NC(=O)C(=Cc3cccs3)S2)cc1Cl [P16, 3-((3-Chloro-4-methylphenyl)(4-oxo-5-(thiophen-2-ylmethylene)-4,5-dihydrothiazol-2-yl)amino)propanoic acid]",79 µM,–
"CN(C)c1ccc(C=C2SC(N(CCC(=O)O)c3ccc(Cl)cc3)=NC2=O)cc1 [P7, 3-((4-Chlorophenyl)(5-(4-(dimethylamino)benzylidene)-4-oxo-4,5-dihydrothiazol-2-yl)amino)propanoic acid]",62 µM,–
"CCOC(=O)C=C(C)n1c2c(=O)c3ccccc3c(=O)c=2oc2ccc([N+](=O)[O-])cc21 [P13, Ethyl 3-(2-nitro-6,11-dioxo-6,11-dihydro-12H-benzo[b]phenoxazin-12-yl)but-2-enoate]",–,"P3, P5, P7, P9, P13, and P16—were confirmed as novel Furin inhibitors, showing typical dose-dependent activity"
"Cc1ccc(N(CCC(=O)O)C2=NC(=O)C(=Cc3ccc(Br)s3)S2)cc1Cl [P3, 3-((5-((5-Bromothiophen-2-yl)methylene)-4-oxo-4,5-dihydrothiazol-2-yl)(3-chloro-4-methylphenyl)amino)propanoic acid]",35 µM,–
"Cc1ccc(Cl)cc1N(CCC(=O)O)c1nc2c(s1)C(=O)c1ccccc1C2=O [P5, 3-((5-Chloro-2-methylphenyl)(4,9-dioxo-4,9-dihydronaphtho[2,3-d]thiazol-2-yl)amino)propanoic acid]",–,"P3, P5, P7, P9, P13, and P16—were confirmed as novel Furin inhibitors, showing typical dose-dependent activity"
"O=C(O)CCN(c1ccc(Cl)cc1)c1nc2c(s1)C(=O)c1ccccc1C2=O [P9, 3-((4-Chlorophenyl)(4,9-dioxo-4,9-dihydronaphtho[2,3-d]thiazol-2-yl)amino)propanoic acid]",–,"P3, P5, P7, P9, P13, and P16—were confirmed as novel Furin inhibitors, showing typical dose-dependent activity"
